Experimental data from patent US5183896A, “Derivatives of 1,2,5,6-tetrahydropyridin-3-carboxaldehyde oxime” (Roussel Uclaf, priority 1990, dated 1993).
Where two headings read alike, the source gives them in different places.

Experiments:
[1] = test system: male mice (CD1 Charles Rivers); test: Duration of hypothermic action: variations in body temperature; type: in vivo, mouse; details: 180 min
[2] = test system: male mice (CD1 Charles Rivers); test: as above; type: in vivo, mouse
Experimental: (§1) The test is carried out on male mice (CD1 Charles Rivers) weighing 25 to 30 g, which have gone without food for 6 hours.
(§2) The body temperature is noted using a thermocouple placed about […] inside the rectum and connected to an electrical temperature recorder.
(§3) The products are administered by oral or sub-cutaneous route and the temperatures are noted at 0 and 30 minutes, 1 hour, 2 hours and 2 and a half hours after treatment.
(§4) The degree of hypothermia is evaluated as the difference between the treated animals and the control animals and the dose necessary to reduce the body temperature by 1° C. is determined.
The duration of action of the products is determined by using doses which can reduce the temperature by 1.5° C. to 1.7° C.

[3] = test system: male mice (CD1 Charles Rivers); test: Diarrheic activity, oral; type: in vivo, mouse
Experimental: The test is carried out on male mice (CD1 Charles Rivers) weighing 25 to 30 g, which have gone without food for 6 hours. The product dissolved at 5% in methocel is administered by oral route, using a probang.
The control animals receive only the excipient.
After treatment, the animals are put separately in cages. The bottoms of the cages are covered with blotting paper and are observed at 30, 60, 120 and 180 minute intervals.
The absorbent sheets of paper are changed after each observation.
The consistency of the faeces is evaluated according to the method of Randall and Baruth (Arch. Int. Pharmacodyn. 220, 94, 1976) by following the scale of the following values:
1: slightly soft feces with or without moist ring,
2: slightly soft feces with presence of a well-defined moist circle,
3: soft feces with presence of a large moist circle,
4 feces without consistency with presence of a very large moist circle.
For each product, the dose was noted which caused diarrhoea in 50% of the animals according to the method of Miller and Tainter (Proc. Soc. Exp. Biol. Med., 57 261, 1944).

[4] = test system: male mice (CD1 Charles Rivers); test: Hypothermic activity: dose reducing body temperature by 1° C.; type: in vivo; details: Mus musculus, read-out: Effective dose (-1° C.)
Experimental: as §1, §2, §3, §4

[5] = test system: isolated ileum of a guinea pig; test: Test of the isolated ileum of a guinea pig (agonist contraction); details: Cavia porcellus, Tyrode solution, 37° C., read-out: pD2 (negative logarithm of the dose which produces 50% of the maximum effect) (converted)
Experimental: 1Test of the isolated ileum of a guinea pig
Ileum fragments are removed from a guinea-pig killed by decapitation. The isolated ileum is placed in 10 cm^3 of Tyrode solution at 37° C. and aerated by a mixture of oxygen (95%) and carbon dioxide (5%). Contractions caused by the products are recorded using a sensor connected to a polygraph. The products under test are added, at concentrations comprised between 1.10^-3 M and 1.10^-8 M/1.
The products showing a contracturating effect are tested relative to atropine and hexamethonium in order to establish whether the activity is of "muscarinic" or "nicotinic" type.
The agonist activity is expressed in pD2 (negative logarithm of the dose which produces 50% of the maximum effect).

Solubility = type: physicochemical; details: for solubility in water: H2O
[6] = Acute toxicity, oral, mortality over 7 days; details: mouse, in vivo, male mice
Experimental: The test is carried out on male mice (CD1 Charles Rivers) weighing 22 to 24 g, which have gone without food for 16 hours. […] The mortality is noted over the 7 days following the treatment.

[7] = test system: central cholinergic system; details: cited from earlier work
[8] = test system: patients who have a memory deficiency; details: intravenous route; cited from earlier work

| SMILES | solubility in 2N HCl (Solubility) | solubility in 2N NaOH (Solubility) | solubility in water (Solubility) | DE50 (dose which caused diarrhoea in 50% of the animals) [3] [mg/kg] | ED (-1 C body temperature) ([4]; SC route) [mg/kg] | ED (-1 C body temperature) ([4]; oral route) [mg/kg] | EC50 [5] [nM] | further results |
| --- | --- | --- | --- | --- | --- | --- | --- | --- |
| COC(=O)C1=CCCN(C)C1 [Arecoline, HBr, reference compound] | – | – | – | 35 | 3 | 190 | 126 | Variation in body temperature ([1]; 3.5 mg/kg, sc): +0.2 °C; Variation in body temperature ([2]; 3.5 mg/kg, sc, 0 min): -0.1 °C; Variation in body temperature ([2]; 3.5 mg/kg, sc, 30 min): -1.5 °C; Variation in body temperature ([2]; 3.5 mg/kg, sc, 60 min): -0.1 °C; Variation in body temperature ([2]; 3.5 mg/kg, sc, 120 min): +0.2 °C |
| C=CCN(CC=C)C(=O)COC(=O)N1CCC=C(C=NOC)C1 [Example 3, (di(2-propenyl)-aminocarbon-yl)-methyl 3-(methoxyiminomethyl)-1,2,5,6-tetrahydropyridine-1-carboxylate] | insoluble | insoluble | insoluble | > 50 | 8 | 9 | > 100000 | LD50 at 168 h [6]: 500 mg/kg; Variation in body temperature ([1]; 15 mg/kg, os): +0.1 °C; Variation in body temperature ([2]; 12 mg/kg, sc, 30 min): -0.9 °C; Variation in body temperature ([2]; 12 mg/kg, sc, 60 min): -1.6 °C; Variation in body temperature ([2]; 12 mg/kg, sc, 120 min): -0.6 °C; Variation in body temperature ([2]; 15 mg/kg, os, 0 min): +0.1 °C; Variation in body temperature ([2]; 15 mg/kg, os, 30 min): -1.3 °C; Variation in body temperature ([2]; 15 mg/kg, os, 60 min): -1.7 °C; Variation in body temperature ([2]; 15 mg/kg, os, 120 min): -0.5 °C |
| COC(=O)C1=CCCN(C)C1 [arecoline] | – | – | – | – | – | – | – | duration of action ([7]; in vivo): short-term action; activity by oral route ([7]; oral route): very weak activity by oral route; effect on patients who have a memory deficiency [8]: positive effect |

Second part, led by results:

| solubility in 2N HCl (Solubility) | solubility in 2N NaOH (Solubility) | solubility in water (Solubility) | SMILES | DE50 (dose which caused diarrhoea in 50% of the animals) [3] [mg/kg] | ED (-1 C body temperature) ([4]; SC route) [mg/kg] | ED (-1 C body temperature) ([4]; oral route) [mg/kg] | EC50 [5] [nM] | further results |
| --- | --- | --- | --- | --- | --- | --- | --- | --- |
| insoluble | insoluble | insoluble | CCN(CC)C(=O)COC(=O)N1CCC=C(C=NOC)C1 [Example 2, (diethylaminocarbonyl) methyl 3-(methoxyiminomethyl)-1,2,5,6-tetrahydropyridine-1-carboxylate] | – | – | – | – | – |
| insoluble | insoluble | insoluble | CON=CC1=CCCN(C(=O)OCC(=O)N2CCCCC2)C1 [Example 4, (1-piperidinylcarbonyl)-methyl 3-(methoxyiminomethyl)-1,2,5,6-tetrahydropyridine-1-carboxylate] | – | – | – | – | – |
| soluble | insoluble | soluble | CON=CC1=CCCN(C(=O)OCC(=O)N2CCN(C)CC2)C1 [Example 5, (4 methyl-1-piperazinyl)-carbonylmethyl 3-(methoxyiminomethyl)-1,2,5,6-tetrahydropyridine-1-carboxylate] | – | – | – | – | – |
